Measurements published in the METLIN SMRT retention time set (Domingo-Almenara et al. 2019).

Assay: gradient 5% acetonitrile 3 min, to 50% in 2 min, to 85% in 15 min, held 3 min, 100 µL/min
Settings: column: Zorbax Extend-C18 2.1 x 50 mm; eluents: water / acetonitrile, 0.1% formic acid
Method in brief: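 Retention times of pure standards were taken from adduct peaks that were selected by computer and manually inspected. Over 3 months, mixtures of ~100 molecules were run by HPLC–quadrupole time-of-flight mass spectrometry in positive and negative ionization mode. The Zorbax Extend-C18 column (2.1 × 50 mm, 1.8 μm) ran at 100 μL/min in water and acetonitrile, each containing 0.1% formic acid, with 40 μL dead volume and 900 μL dwell volume.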

Compound	RP-LC retention time [s]
Cc1ccc(N2CCC(NC(=O)c3cccs3)C2=O)cc1C (stereo not given)	827
COCCNC(=O)c1cc(-c2ccncc2)cn1Cc1ccc(C)cc1	640
Cc1[nH]c(C(=O)N2CCC(CC(=O)NCCCN3CCC(N4CCCCC4)CC3)CC2)c(C)c1C	575
CCN1c2cc(F)ccc2C(=O)NC12CCN(C(=O)c1cccc(C)c1)CC2	824
Cn1cnc2c(C(=O)Nc3ccccc3)nn(-c3ccccc3)c2c1=O	835
Cc1cccc(NS(=O)(=O)c2ccc3c(c2)C(=O)N(C)c2ncccc2O3)c1	1050
O=C(c1ccccn1)N1CCC(n2c(C3CCCC3)nc3cccnc32)C1 (stereo not given)	620
COc1cc(-c2nc(-c3ccc4c(c3)nnn4C)no2)cc(OC)c1OC	937
COc1ccc(C)cc1NC(=O)C1CCN(S(=O)(=O)c2cc(C(=O)N3CCCC3)n(C)c2)CC1	809
O=C(Nc1cnc(N2CCN(CCOc3ccc(Cl)cc3)CC2)c(C(=O)O)c1)c1cccs1	683
CCn1c(CCC(=O)NCc2ccc(Cl)cc2)nc2ccccc2c1=O	812
CCCCOc1ccc(CNC(=O)C2CCCN(c3nccc(C)n3)C2)cc1 (stereo not given)	930
Cc1cnn(CC(=O)N2CC(F)(F)C[C@H]2c2nc(C3CC3)no2)c1	703
CC(C)c1ccc(S(=O)(=O)N2CC(=O)N(C3CCCC3)C3(CCCCC3)C2)cc1	1330
CCOc1ccc2nc(C(=O)N3CCN(c4ccccn4)CC3)cn2n1	600
O=C(CSc1nc2ccccc2o1)Nc1cc(C(F)(F)F)ccc1Cl	891
CCc1nc(-c2cc(S(=O)(=O)NCC(=O)N3CCN(c4ccc(F)cc4)CC3)c(C)s2)no1	959
CCOC(=O)/C(=N\O)C1=CSC2=NNC(C)(C)N12	907
CCN1C(=O)Cc2cc(C(=O)NC3CCCCCC3)ccc21	797
CN(CC1CCOC1)C(=O)c1ccc(F)cc1Cl (stereo not given)	704
CCCn1ccc2oc(C)c(C(=O)NC(C)c3ccc(F)cc3)c2c1=O (stereo not given)	1040
COc1ccc(-c2ccc(=O)n(Cc3nc(-c4cccc(Cl)c4)no3)n2)cc1OC	976
Cc1c(Cl)cccc1NC(=O)Cn1nc2c3cc(F)ccc3ncn2c1=O	677
COc1ccc(-c2nnc(N3CCC(C(=O)N4CCN(C)CC4)CC3)o2)cc1	582
c1ccc(-n2nnc(-c3noc(-c4ccncc4)n3)c2-c2ccncc2)cc1	732
CCC1Oc2ccc(S(=O)(=O)N3CCC(C(=O)Nc4ccc(C)c(F)c4)CC3)cc2NC1=O (stereo not given)	892

Compound	RP-LC retention time [s]
CC(C)CCN1CCc2[nH]nc(C(=O)N(C)C)c2C1	575
O=C(CCc1c(-c2ccc(Cl)cc2)nc2ccccn12)NCC1CCCO1 (stereo not given)	602
O=C(Cn1nc(N2CCSCC2)c2ccccc2c1=O)Nc1ccc2c(c1)OCCO2	818
CCc1nc2c(NC(=O)c3ccc(C(F)(F)F)cc3)cccn2n1	957
O=C(Nc1ccc(N2CCN(C3CCCC3)C2=O)nc1)c1ccccc1	817
O=C(CCn1c(=O)oc2ccccc21)N1CC(F)(F)C[C@H]1COc1ccccc1	1000
Cc1ccc(NC(=O)c2cc(C)n3nc(C)cc3n2)cc1	994
Cc1ccccc1CNC(=O)C1(C)Oc2cccnc2N(C(C)C)C1=O (stereo not given)	978
c1ccc2nc(OCCN3CC3)ccc2c1	727
O=C(c1ccc(OCC2CCCN2C(=O)c2ccc(Cl)cc2)cc1)N1CCOCC1 (stereo not given)	795
Cc1ccc(-c2nnc(-c3ccccc3)o2)cc1S(=O)(=O)N1CCCC1	1020
CCOC(=O)c1ccc(NC(=O)Cn2c(=O)n(-c3ccc(F)cc3)c(=O)c3c2cc(C)n3C)cc1	893
COc1ccc(C(=O)N2[C@H]3CC[C@@H]2c2cnc(-c4ccc(F)cc4)nc2C3)cn1	892
CCn1cc(C(=O)Nc2cc(C)cc(C)c2)c(S(=O)(=O)N2CCSCC2)n1	944
CCN1CCC(N(Cc2cccs2)C(=O)Nc2ccc(Cl)cc2)CC1	682
O=c1c2sccc2n(Cc2nc(-c3cccc(Br)c3)no2)c(=O)n1-c1cccc(F)c1	1080
COc1ccc2nc(C(=O)NCc3cccc(Br)c3)cn2n1	896
CC1(C)CC2(CCO1)OC(=O)CC2C(=O)Nc1ccccc1Cl (stereo not given)	753
O=C(Cc1cccs1)N1CCCC1c1cccc(F)c1 (stereo not given)	817
CN(CC1CCOC1)C(=O)c1ccc(F)c(Cl)c1 (stereo not given)	724
COc1ccccc1CN1CCC(CNS(=O)(=O)c2ccc3c(c2)CCCC(=O)N3)CC1	566
CCc1noc(NC(C)=O)c1-c1ccc(OC)c(S(=O)(=O)Nc2ccc(C)c(Cl)c2)c1	1300
COc1nn(C)cc1C(=O)NCC(c1ccco1)N1CCN(c2ccc(F)cc2)CC1 (stereo not given)	581
O=C(COc1ccc(F)cc1)N1CCN(Cc2noc3ccccc23)CC1	726
O=C(Nc1cccc(Cl)c1)C1CCCN(S(=O)(=O)Cc2ccccc2)C1 (stereo not given)	1030

The next lines start with the values.

RP-LC retention time [s]	Compound
1190	CCc1ccc(-c2csc(Nc3ccc(F)cn3)n2)cc1
729	CN(C)c1ccc(C(=O)Nc2cnc(N3CCOCC3)nc2)cc1
834	CCOC(=O)C1=C(O)C(=O)N(Cc2ccccc2)C1
1050	O=S(=O)(Cc1ccccc1)N1CCCCC1c1noc(COCC2CC2)n1 (stereo not given)
892	O=C(NCc1nc(-c2cccs2)no1)c1ccc(Br)cc1
885	CCOc1ccc(N(C)C(=O)C2CCN(S(=O)(=O)c3ccc4c(c3)sc(=O)n4C)CC2)cc1
834	CCn1nccc1C(=O)Nc1cnc(N2CCCCCC2)nc1
912	Cc1nc(-c2ccc(N3CCN(C(=O)c4ccc(Br)o4)CC3)cc2)no1
626	COc1ccc(Cc2nc(-c3ccc4c(c3)ncn4CCN3CCCCC3)no2)cc1
918	Cc1nc(-c2noc(-c3ccc(F)cc3)n2)cn1CC(=O)Nc1cccc(Cl)c1
1040	CC1CN(c2nc(Nc3ccc(Cl)cc3)c3cnn(C)c3n2)CC(C)O1 (stereo not given)
857	COC(=O)C1=CN(c2cccc(OC)c2)c2cc(F)ccc2S1(=O)=O
585	COc1cccc(C(=O)Nc2nc3c(s2)CN(Cc2ccccc2)CC3)c1OC
648	O=C(CNC(=O)Cc1ccccc1)NCc1[nH]nc2ccccc12
831	CCOC(=O)Cn1cccc(S(=O)(=O)N2CCCCCC2)c1=O
825	O=C(Nc1cccnc1)C1CCCN(S(=O)(=O)c2cc(-c3noc(C4CCCC4)n3)cs2)C1 (stereo not given)
944	O=C1CC(c2noc(-c3cc(F)cc(F)c3)n2)CN1c1ccc(F)cc1 (stereo not given)
557	Nc1c(Cl)ncnc1NCCO
860	CCN1C(=O)c2cccnc2Sc2cc(NC(=O)COc3ccccc3C)ccc21
955	Cc1cc(-c2nnc(NC(=O)C(C)(C)Oc3ccc(Cl)cc3)o2)c(C)o1

RP-LC retention time [s]	Compound
503	CCNC(=O)[C@H]1O[C@@H](n2cnc3c(N)nc(NCCc4ccc(CCC(=O)O)cc4)nc32)C(O)[C@H]1O (stereo not given in full)
918	COc1ccc2c(c1)C=C(C(=O)NC1CCCC1)C=CO2
1070	CCc1cccc(NS(=O)(=O)c2cn(CC(C)C)c3ncccc23)c1
906	O=C(Nc1cccc(Cl)c1)c1cn(-c2cc(N3CCCC3)ncn2)cn1
774	c1ccc(SCc2nnc3sc(-c4cnccn4)nn23)cc1
681	Cc1ccc(C)c(NC(=O)CSc2ccc(N3CCCC(C(=O)NC4CC4)C3)nn2)c1 (stereo not given)
529	CCN(CC)c1ccc(NC(=O)CSc2ccc(N3CCCC(C(=O)NC4CC4)C3)nn2)c(C)c1 (stereo not given)
686	Cc1ccnc(NS(=O)(=O)c2ccc(NC(=O)c3ccc(-n4cccn4)nn3)cc2)n1
1020	CCOc1ccc(-n2c(=O)c3sccc3n(Cc3nc(-c4ccccc4OCC)no3)c2=O)cc1
1030	CC1(C(=O)NCc2ccc(F)cc2)CCCN(C(=O)Nc2ccc(Br)cc2F)C1 (stereo not given)
876	CCCCN(C)C(=O)CC1Sc2ncccc2N(CC(C)C)C1=O (stereo not given)
610	CC(=O)Nc1nsc(N2CCC(C(=O)NCc3cccs3)CC2)n1
573	CCN1CCCC1CN(CC(=O)N1CCNCC1)S(=O)(=O)c1cc(Cl)ccc1OC (stereo not given)
742	COc1ccc(CNC(=O)c2nc3cccnc3n(C)c2=O)cc1
856	CCn1nc(C)n2cc(S(=O)(=O)NCc3ccc(F)cc3F)cc2c1=O
862	O=C(CN1C(=O)CCCc2cc(S(=O)(=O)N3CCCCC3)ccc21)NCc1ccc(F)cc1
923	COc1ccc(OC)c(Nc2c(-c3ccc(SC)cc3)nc3cnccn23)c1
862	CCn1cc(S(=O)(=O)NCc2cccc(Cl)c2)c2cccnc21
829	CCOc1ccc(-c2nc(-c3ccc4ncn(CC)c4c3)no2)cc1
